Data published in US8927580B2, “Thiosemicarbazone compounds and use in the treatment of cancer” (Oncochel Therapeutics LLC, priority 2010, dated 2015).

Assays:
NDRG1 = test: Western blot analysis, NDRG1 expression; type: cell-based; details: MIAPaCa-2 cells
Description: (§1) Western analysis was performed via established protocols (Gao, J. and D. R. Richardson (2001). Blood 98: 842-50). The primary antibodies used were against NDRG1 (Abcam; UK), p21, cyclin D1, transferrin receptor 1 (TfR1; Santa Cruz, CA, USA) and β-actin (Sigma-Aldrich), with secondary HRP-conjugated goat and mouse antibodies (Sigma-Aldrich).
(§2) Dp4cycH4mT was examined to determine whether it could up-regulate NDRG-1 expression. To further evaluate the effect of the chelator Dp4cycH4mT on other key molecules involved in cell cycle progression, the expression of the cyclin-dependent kinase inhibitor, p21, as well as cyclin D1 in MIAPaCa-2 cells was also examined.

metmyoglobin (metMb) = test: metMb formation in vivo; design: species or system C57BL6 mice; details: 6 mg/kg intravenously, 30 min post-administration, heart
Description: FIG. 14. Effect of thiosemicarbazone chelators on metMb-formation in vivo. MetMb levels after Dp44mT Triapine® or Dp4cycH4mT treatment in vivo at a dose of 6 mg/kg administered intravenously via the tail vein. Mice in the control group were treated with vehicle alone. At 30 min post-administration, whole hearts were collected for determination of metMb levels.
Mouse heart tissue was exhaustively perfused with ice-cold HBSS to remove blood and homogenized in ice-cold HBSS containing protease inhibitor cocktail (Roche, Basel, Switzerland). Heart homogenates were centrifuged (16,000×xg/45 min/4° C.) and the supernatant ([oxyMb]=50 μM) used immediately.
(§3) The levels of metHb and metMb in RBC lysates were determined using a Shimadzu UV-Vis spectrophotometer (UV-1800; Shimadzu Corporation, Kyoto, Japan) at 577 nm and 630 nm for metHb and metMb in accordance with published methods (Winterbourn CC and Carrell R W (1977). Biochem J 165: 141-148).
(§4) C57BL6 mice (7-8 weeks-old) were used under a protocol approved by the university of Sydney Animal Ethics Committee. Dp44mT, Triapine® or Dp4cycH4mT (all at 6 mg/kg) were dissolved in 30% propylene glycol/saline and administered iv via the tail vein. Subsequently, 30 min after administration, mice were anesthetized with isoflurane and blood samples obtained by cardiac puncture. Blood samples were lysed with 2.5 volumes of ultrapure water for metHb estimation. Mice were sacrificed with isoflurane, the heart exhaustively perfused with HBSS and Mb isolated.

methemoglobin (metHb) = test: metHb formation in vivo; design: species or system C57BL6 mice; details: 6 mg/kg intravenously, blood taken after 30 min
Description: FIG. 13. Effect of thiosemicarbazone chelators on metHb-formation in vivo. MetHb after Dp44mT, Triapine® or Dp4cycH4mT treatment in vivo at a dose of 6 mg/kg administered intravenously via the tail vein. Mice in the control group were treated with vehicle alone. At 30 minutes post-administration, whole blood was collected for determination of metHb levels.
as §3, §4

[1] = DMS-53 xenograft oral study: body and organ weights, haematology, biochemistry, histology; type: in vivo, nude mice (BALBc nu/nu)
[2] = system: DMS-53 human lung carcinoma; test: DMS-53 xenograft in nude mice, oral gavage: tumour growth; type: in vivo, nude mice (BALBc nu/nu); details: 10 mg/kg, 21 days
[3] = system: DMS-53 human lung carcinoma; test: DMS-53 xenograft in nude mice, i.v. administration: tumour growth; type: in vivo, nude mice (BALBc nu/nu); details: 0.75 mg/kg
p21 = test: Western blot analysis, p21 expression; type: cell-based; details: MIAPaCa-2 cells
Description: as §1, §2

[4] = system: PANC 1 human pancreatic carcinoma; test: PANC 1 xenograft in nude mice: tumour growth; type: in vivo, nude mice (BALBc nu/nu); details: for average tumour size (% of the original tumour size): after 6 weeks; for final tumour weight: after 43 days
Description: FIG. 5). […] (5 mg/kg) or vehicle control.

[5] = mouse, in vivo
[6] = DMS-53 xenograft i.v. study: body and organ weights, haematology, histology; type: in vivo, nude mice (BALBc nu/nu)
cyclin D1 = test: Western blot analysis, cyclin D1 levels; type: cell-based; details: MIAPaCa-2 cells
Description: as §1, §2

[7] = system: CAPAN-2 pancreatic cancer cells; test: MTT proliferation assay, CAPAN-2; type: cell-based; details: Homo sapiens; CAPAN-2, MTT, 72 h
Description: (§5) The pancreatic cancer cell lines, including MIAPaCa-2, PANC 1, CAPAN-2 and CFPAC-1 were a generous gift from Prof. Andrew Biankin (Garvan Institute, NSW, Australia). The MIAPaCa-2, PANC 1 and CFPAC-1 cell lines were grown in DMEM medium (Invitrogen) and CAPAN-2 cells were grown in McCoy's medium (Invitrogen). All media was supplemented with 10% (v/v) fetal calf serum (Invitrogen), 1% (v/v) non-essential amino acids (Invitrogen), 1% (v/v) sodium pyruvate (Invitrogen), 2 mM L-glutamine (Invitrogen), 100 μg/mL of streptomycin (Invitrogen), 100 U/ml penicillin (Invitrogen), and 0.28 μg/mL of fungizone.
(§6) To further examine the spectrum of anti-proliferative activity, Dp4cycH4mT was tested against pancreatic cancer in vitro, performing MTT proliferation assays with PANC 1, MIAPaCa-2, CFPAC-1 and CAPAN-2 pancreatic cancer cells. As a comparison, currently used treatments for pancreatic cancer including gemcitabine and 5-fluorouracil were also tested. The iron chelator, DFO, was included as a positive control.
(§7) Table 2A. Anti-proliferative activity of Dp4cycH4mT against pancreatic cancer cell lines. Growth and antiproliferative activity IC50 (μM) values of Dp4cycH4mT in a variety of pancreatic cell lines and in comparison to DFO and the clinically used drugs gemcitabine and 5-fluorouracil as determined by the MTT assay. Cells were seeded and allowed to attach to wells for 24 h and then incubated for 72 h at 37° C. with control medium or the chelators. Results are mean±SD (3 experiments).
(§8) Table 2B. Anti-proliferative activity of Dp4cycH4mT against pancreatic cancer cell lines. IC90 (μM) values of Dp4cycH4mT in a variety of pancreatic cell lines and in comparison to DFO and the clinically used drugs gemcitabine and 5-fluorouracil as determined by the MTT assay. Cells were seeded and allowed to attach to wells for 24 h and then incubated for 72 h at 37° C. with control medium or the chelators. Results are mean±SD (3 experiments).

[8] = system: transferrin receptor 1 (TfR1); test: Western blot analysis, transferrin receptor 1 levels; type: cell-based; details: MIAPaCa-2 cells
Description: as §1, §2

[9] = system: PANC 1 pancreatic cancer cells; test: MTT proliferation assay, PANC 1; type: cell-based; details: Homo sapiens; PANC 1, MTT, 72 h
Description: as §5, §6, §7, §8

[10] = system: CFPAC-1 pancreatic cancer cells; test: MTT proliferation assay, CFPAC-1; type: cell-based; details: Homo sapiens; CFPAC-1, MTT, 72 h
Description: as §5, §6, §7, §8

[11] = system: MIAPaCa-2 pancreatic cancer cells; test: MTT proliferation assay, MIAPaCa-2; type: cell-based; details: Homo sapiens, MIA PaCa-2; MIAPaCa-2, MTT, 72 h
Description: as §5, §6, §7, §8

[12] = system: human RBCs (methemoglobin formation); type: cell-based; details: 3 h, 25 μM
Description: FIG. 12. Effect of DFO and thiosemicarbazone chelators on metHb-formation in vitro. Whole RBCs were incubated with 1-25 μM chelator at 37° C. for 3 h. Cells were lysed with ultra-pure H2O and metHb levels were measured spectrophotometrically. Results are the mean±SD from 3 experiments.
Whole blood samples were collected from healthy human donors or mice in suitable blood collection tubes containing EDTA and used immediately. Red blood cells (RBCs) were isolated by centrifugation (480 xg/5 min/4° C.) then washed in Hank's balanced salt solution (HBSS). RBCs were resuspended 1:1 in HBSS and whole RBC assays were carried out at 37° C.
as §3
The effect of chelator concentration (1-25 μM) on metHb-generation with intact RBCs was assessed (FIG. 12). […] At 25 μM, these chelators increased metHb formation to 19.95±1.0 and 19.9±3.0% of total Hb, respectively (FIG. 12). The negative control chelator Dp2mT, by design, features a methyl group that hinders complex formation. Accordingly, this chelator cannot participate in the redox-interaction with iron that gives rise to metHb formation (FIG. 12).

[13] = gemcitabine 5 mg/kg intra-peritoneally every 3rd day

SMILES: CN(C)C(=S)NN=C(c1ccccn1)c1ccccn1 [Dp44mT, di-2-pyridylketone 4,4-dimethyl-3-thiosemicarbazone, reference compound]
- NDRG1 expression (NDRG1): significantly (p<0.01) up-regulated
- levels of metMb (metmyoglobin (metMb)): 82.3±2.6%
- metHb (% of total Hb) (methemoglobin (metHb)): 6.3±0.8 % of total Hb
- myocardial lesions (Gomori-Trichrome stain) ([1]; Dp44mT 0.75 mg/kg, Dp4e4mT.HCl 3 weeks at 2.5, 5, 7.5 and 10 mg/kg oral): myocardial lesions were observed
- histology of the liver, spleen, kidney, brain or tumour (H & E) vs control ([1]; Dp44mT 2 weeks at 0.75 mg/kg, Dp4e4mT.HCl 3 weeks at 2.5, 5, 7.5 and 10 mg/kg oral): no significant differences
- Body weight (% initial) ([1]; oral, 10 mg/kg): 93.6 ± 1.8 % initial
- Brain weight ([1]; oral, 10 mg/kg): 0.363 ± 0.008 g
- Heart weight ([1]; oral, 10 mg/kg): 0.102 ± 0.005 g
- Kidney weight ([1]; oral, 10 mg/kg): 0.208 ± 0.004 g
- Liver weight ([1]; oral, 10 mg/kg): 0.88 ± 0.02 g
- Lung weight ([1]; oral, 10 mg/kg): 0.133 ± 0.008 g
- Spleen weight ([1]; oral, 10 mg/kg): 0.081 ± 0.005 g
- Tumour weight [2]: 0.46 ± 0.1 g
- Tumour weight [3]: 0.1 ± 0.02 g
- net tumour size (% of the initial tumour volume) ([3]; after 25 days): 122%
- p21 expression (p21): markedly (p<0.05) increasing
- average tumour size (% of the original tumour size) ([4]; 0.4 mg/kg i.v. 5 days/week): 305%
- final tumour weight ([4]; 0.4 mg/kg i.v.): 122 ± 33 mg
- KIDNEY Fe (score for presence of iron stained by Perl's stain) [5]: +/−
- SPLEEN HPC (score for the presence of haematopoietic cells in the splenic red pulp) [5]: N
- iron deposits in the kidney [5]: iron deposits were observed
- histology of the liver, spleen, kidney, brain or tumour (H & E) vs control ([6]; 2 weeks i.v., Dp44mT 0.75 mg/kg, Dp4e4mT.HCl 4 and 6 mg/kg): no significant differences
- myocardial lesions (Gomori-Trichrome stain) ([6]; 2 weeks i.v., Dp44mT 0.75 mg/kg, Dp4e4mT.HCl 4 or 6 mg/kg): myocardial lesions were observed
- change in red blood cell count, haemoglobin or white blood cell count ([6]; after 2 weeks, Dp44mT 0.75 mg/kg, Dp4e4mT.HCl 1.5, 4 or 6 mg/kg i.v.): no significant change
- HCT ([6]; i.v., 0.75 mg, average): 0.43
- HGB ([6]; i.v., 0.75 mg, average): 135.50 g/L
- PLT ([6]; i.v., 0.75 mg, average): 1274.50 10 × 9 cells/L
- RBC ([6]; i.v., 0.75 mg, average): 9.87 10 × 12 cells/L
- WBC ([6]; i.v., 0.75 mg, average): 5.38 10 × 9 cells/L
- Body weight (% of initial weight) ([6]; i.v., 0.75 mg/kg): 91.01 ± 5.3 % initial weight
- Brain weight ([6]; i.v., 0.75 mg/kg): 0.32 ± 0.01 g
- Heart weight ([6]; i.v., 0.75 mg/kg): 0.11 ± 0.01 g
- Kidney weight ([6]; i.v., 0.75 mg/kg): 0.23 ± 0.01 g
- Liver weight ([6]; i.v., 0.75 mg/kg): 1.04 ± 0.05 g
- Spleen weight ([6]; i.v., 0.75 mg/kg): 0.13 ± 0.02 g
- weight loss (% of initial weight) ([6]; i.v., 0.75 mg/kg): 9%
- cyclin D1 levels (cyclin D1): significantly (p<0.05) reduced

SMILES: Nc1ccn([C@@H]2O[C@H](CO)[C@@H](O)C2(F)F)c(=O)n1 [Gemcitabine, gemcitabine]
- NDRG1 expression (NDRG1): no marked effect
- IC50 [7]: 40.8 ± 4.7 µM
- IC90 [7]: > 5 µM
- TfR1 levels [8]: did not modulate
- IC50 [9]: 11 ± 0.8 µM
- IC90 [9]: > 5 µM
- IC50 [10]: 20 ± 20 nM
- IC90 [10]: 30.4 ± 2.2 µM
- p21 expression (p21): did not modulate
- Tumour weight ([4]; Gemcitabine 5 mg/kg/day): 0.07 ± 0.02 g
- average tumour size (% of the original tumour size) [4, 13]: 319%
- final tumour weight [4, 13]: 67 ± 25 mg
- IC50 [11]: 20 ± 5 nM
- IC90 [11]: > 5 µM
- KIDNEY Fe (score for presence of iron stained by Perl's stain) [5]: −
- LIVER HP (histopathological changes) [5]: N
- LUNG HP (histopathological changes) [5]: N
- MYOCARDIUM Fibrosis [5]: −
- MYOCARDIUM HP (histopathological changes) [5]: N
- SPLEEN HPC (score for the presence of haematopoietic cells in the splenic red pulp) [5]: N
- iron deposits in the kidney [5]: no evidence of iron deposits
- cyclin D1 levels (cyclin D1): did not modulate

SMILES: NC(=S)NN=Cc1ncccc1N [Triapine®, 3-aminopyridine-2-carboxaldehyde thiosemicarbazone]
- levels of metMb (metmyoglobin (metMb)): 75.2±4.2%
- metHb formation (% of total Hb) [12]: 19.95±1.0 % of total Hb
